Converted amounts (≈) assume the structure as drawn.
Columns and labels:
[1] = test system: Bordetella bronchiseptica 16; assay: MIC, standard agar dilution test; assay type: cell-based; details: Bordetella bronchiseptica 16; agar dilution; read-out: Minimum Inhibitory Concentration
Description: (§1) The antibacterial activity of the deprotected compounds of this invention is illustrated by the following in vitro and in vivo test data obtained with representative compounds. In Table I, the minimum inhibitory concentration (MIC) for representative compounds against a wide range of gram-positive and gram-negative bacteria is presented. The MIC values were obtained by the standard agar dilution test.

[2] = test system: Citrobacter freundii CF17; assay: MIC, standard agar dilution test; assay type: cell-based; details: Citrobacter freundii CF17; agar dilution; read-out: Minimum Inhibitory Concentration
Description: as §1

[3] = test system: Enterobacter aerogenes C32; assay: MIC, standard agar dilution test; assay type: cell-based; details: Klebsiella aerogenes; Enterobacter aerogenes C32; agar dilution; read-out: Minimum Inhibitory Concentration
Description: as §1

[4] = test system: Enterobacter aerogenes EB17; assay: MIC, standard agar dilution test; assay type: cell-based; details: Klebsiella aerogenes; Enterobacter aerogenes EB17; agar dilution; read-out: Minimum Inhibitory Concentration
Description: as §1

[5] = test system: Enterobacter aerogenes X68; assay: MIC, standard agar dilution test; assay type: cell-based; details: Klebsiella aerogenes, Enterobacter aerogenes X68, read-out: Minimum Inhibitory Concentration
Description: as §1

[6] = test system: Enterobacter cloacae 265A; assay: MIC, standard agar dilution test; assay type: cell-based; details: Enterobacter cloacae 265A; agar dilution; read-out: Minimum Inhibitory Concentration
Description: as §1

Enterobacter cloacae EB5 = assay: MIC, standard agar dilution test; assay type: cell-based; details: Enterobacter cloacae EB5; agar dilution; read-out: Minimum Inhibitory Concentration
Description: as §1

Escherichia coli EC14 = assay: MIC, standard agar dilution test; assay type: cell-based; details: Escherichia coli EC14; agar dilution; read-out: Minimum Inhibitory Concentration
Description: as §1

Escherichia coli N10 = assay: MIC, standard agar dilution test; assay type: cell-based; details: Escherichia coli, N10, Escherichia coli N10; agar dilution; read-out: Minimum Inhibitory Concentration
Description: as §1

Escherichia coli TEM = assay: MIC, standard agar dilution test; assay type: cell-based; details: read-out: Minimum Inhibitory Concentration
Description: as §1

Hemophilus influenzae 76 = assay: MIC, standard agar dilution test; assay type: cell-based; details: Haemophilus influenzae, Hemophilus influenzae 76, read-out: Minimum Inhibitory Concentration
Description: as §1

[7] = test system: Hemophilus influenzae C.L.; assay: MIC, standard agar dilution test; assay type: cell-based; details: Haemophilus influenzae, Hemophilus influenzae C.L., read-out: Minimum Inhibitory Concentration
Description: as §1

[8] = test system: Klebsiella pneumoniae KAE; assay: MIC, standard agar dilution test; assay type: cell-based; details: Klebsiella pneumoniae KAE; agar dilution; read-out: Minimum Inhibitory Concentration
Description: as §1

[9] = test system: Klebsiella pneumoniae X26; assay: MIC, standard agar dilution test; assay type: cell-based; details: Klebsiella pneumoniae X26; agar dilution; read-out: Minimum Inhibitory Concentration
Description: as §1

Proteus inconstans PR33 = assay: MIC, standard agar dilution test; assay type: cell-based; details: Providencia alcalifaciens; Proteus inconstans PR33; agar dilution; read-out: Minimum Inhibitory Concentration
Description: as §1

Proteus morganii PR15 = assay: MIC, standard agar dilution test; assay type: cell-based; details: Morganella morganii; Proteus morganii PR15; agar dilution; read-out: Minimum Inhibitory Concentration
Description: as §1

Proteus rettgeri C24 = assay: MIC, standard agar dilution test; assay type: cell-based; details: Providencia rettgeri; Proteus rettgeri C24; agar dilution; read-out: Minimum Inhibitory Concentration
Description: as §1

Proteus rettgeri PR7 = assay: MIC, standard agar dilution test; assay type: cell-based; details: Providencia rettgeri, Proteus rettgeri PR7, read-out: Minimum Inhibitory Concentration
Description: as §1

[10] = test system: Pseudomonas aeruginosa Ps18; assay: MIC, standard agar dilution test; assay type: cell-based; details: Pseudomonas aeruginosa Ps18; agar dilution; read-out: Minimum Inhibitory Concentration
Description: as §1

[11] = test system: Pseudomonas aeruginosa X239; assay: MIC, standard agar dilution test; assay type: cell-based; details: Pseudomonas aeruginosa X239; agar dilution; read-out: Minimum Inhibitory Concentration
Description: as §1

[12] = test system: Pseudomonas aeruginosa X528; assay: MIC, standard agar dilution test; assay type: cell-based; details: Pseudomonas aeruginosa X528; agar dilution; read-out: Minimum Inhibitory Concentration
Description: as §1

[13] = test system: Salmonella heidelberg X514; assay: MIC, standard agar dilution test; assay type: cell-based; details: Salmonella enterica; Salmonella heidelberg X514; agar dilution; read-out: Minimum Inhibitory Concentration
Description: as §1

[14] = test system: Salmonella typhimurium 1335; assay: MIC, standard agar dilution test; assay type: cell-based; details: Salmonella enterica; Salmonella typhimurium 1335; agar dilution; read-out: Minimum Inhibitory Concentration
Description: as §1

Serratia marcescens SE3 = assay: MIC, standard agar dilution test; assay type: cell-based; details: Serratia marcescens SE3; agar dilution; read-out: Minimum Inhibitory Concentration
Description: as §1

Serratia marcescens X99 = assay: MIC, standard agar dilution test; assay type: cell-based; details: Serratia marcescens X99, read-out: Minimum Inhibitory Concentration
Description: as §1

Shigella sonnei N9 = assay: MIC, standard agar dilution test; assay type: cell-based; details: read-out: Minimum Inhibitory Concentration
Description: as §1

[15] = test system: Staphylococcus aureus S13E; assay: MIC, standard agar dilution test; assay type: cell-based; details: read-out: Minimum Inhibitory Concentration
Description: as §1

[16] = test system: Staphylococcus aureus V41; assay: MIC, standard agar dilution test; assay type: cell-based; details: Staphylococcus aureus V41; agar dilution; read-out: Minimum Inhibitory Concentration
Description: as §1

[17] = test system: Staphylococcus aureus X1.1; assay: MIC, standard agar dilution test; assay type: cell-based; details: Staphylococcus aureus X1.1; agar dilution; read-out: Minimum Inhibitory Concentration
Description: as §1

[18] = test system: Staphylococcus aureus X400; assay: MIC, standard agar dilution test; assay type: cell-based; details: Staphylococcus aureus X400, read-out: Minimum Inhibitory Concentration
Description: as §1

[19] = test system: Staphylococcus epidermidis EPI1; assay: MIC, standard agar dilution test; assay type: cell-based; details: Staphylococcus epidermidis, EPI1; read-out: Minimum Inhibitory Concentration
Description: as §1

[20] = test system: Staphylococcus epidermidis EPI2; assay: MIC, standard agar dilution test; assay type: cell-based; details: Staphylococcus epidermidis EPI2; agar dilution; read-out: Minimum Inhibitory Concentration
Description: as §1

[21] = test system: Streptococcus group D 9960; assay: MIC, standard agar dilution test; assay type: cell-based; details: D9960; Streptococcus group D 9960; agar dilution; read-out: Minimum Inhibitory Concentration
Description: as §1

[22] = test system: Streptococcus group D X66; assay: MIC, standard agar dilution test; assay type: cell-based; details: DX66; Streptococcus group D X66; agar dilution; read-out: Minimum Inhibitory Concentration
Description: as §1

[23] = test system: Streptococcus pneumoniae Park I; assay: MIC, standard agar dilution test; assay type: cell-based; details: Streptococcus pneumoniae; read-out: Minimum Inhibitory Concentration
Description: as §1

[24] = test system: Streptococcus pyogenes C203; assay: MIC, standard agar dilution test; assay type: cell-based; details: Streptococcus pyogenes C203; agar dilution; read-out: Minimum Inhibitory Concentration
Description: as §1

[25] = test system: Staphylococcus aureus 3055; assay: Subcutaneous therapy of experimental bacterial infection in mice (ED50); assay type: in vivo; details: Staphylococcus aureus, 3055, sc; mg/kg × 2 subcutaneous doses at 1 and 5 hours post infection; mice challenged with 68.1 LD50's; read-out: Effective Dose (ED50)
Experimental: Table II illustrates the effective dose (ED50, the effective dose to protect 50 percent of the test animals) for representative compounds of this invention against an experimental bacterial infection in mice.
The ED50 values were determined as described by W. E. Wick et al., Journal of Bacteriology, 81 [No. 2], 233-235 (1961).

Escherichia coli X563 = assay: Standard disc-plate method, zone of inhibition against apramycin-resistant strain; assay type: cell-based; details: apramycin-resistant E. coli X563, one value for each of two test runs per compound
Description: Table III, shown below, illustrates the in vitro activity of 1-N-(S-y-amino-a-hydroxybutyryl)apramycin, 1-N-(RS-y-amino-a-hydroxybutyryl)apramycin, and 1-N-(S-y-amino-a-hydroxybutyryl)nebramine against an apramycin resistant strain of E. coli. The results below were obtained using the standard disc-plate method. The numerical values are the diameters in millimeters of the zones of inhibition observed against this bacterium. Compounds substituted with the y-amino-a-hydroxybutyryl and analogous side chains are useful in treating infections caused by apramycin resistant bacteria such as the one above.
The test organism (E. coli X563) used in the experiments summarized in Table III is resistant to apramycin due to a 3-N-acetyltransferase which enzymatically inactivates apramycin.

CCNC1CC(N)C(OC2OC3C(CC2N)OC(OC2OC(CO)C(N)C(O)C2O)C(NC)C3O)C(O)C1O (stereo not drawn) [Test Compound 4, 1-N-ethylapramycin] was tested, and the MIC [1] was 64 µg/mL (≈ 113 µM), the MIC [2] was 16 µg/mL (≈ 28.2 µM) and the MIC [3] was 8 µg/mL (≈ 14.1 µM). The MIC [4] was 16 µg/mL (≈ 28.2 µM), the MIC [5] was 16 µg/mL (≈ 28.2 µM) and the MIC [6] was 32 µg/mL (≈ 56.4 µM). For the same compound, the MIC (Enterobacter cloacae EB5) was 32 µg/mL (≈ 56.4 µM), the MIC (Escherichia coli EC14) was 32 µg/mL (≈ 56.4 µM) and the MIC (Escherichia coli N10) was 16 µg/mL (≈ 28.2 µM). It also gave an MIC (Escherichia coli TEM) of 8 µg/mL (≈ 14.1 µM), an MIC (Hemophilus influenzae 76) of 16 µg/mL (≈ 28.2 µM) and an MIC [7] of 16 µg/mL (≈ 28.2 µM). For the same compound, the MIC [8] was 16 µg/mL (≈ 28.2 µM), the MIC [9] was 8 µg/mL (≈ 14.1 µM) and the MIC (Proteus inconstans PR33) was 128 µg/mL (≈ 225 µM). For the same compound, the MIC (Proteus morganii PR15) was 32 µg/mL (≈ 56.4 µM), the MIC (Proteus rettgeri C24) was 64 µg/mL (≈ 113 µM) and the MIC (Proteus rettgeri PR7) was 8 µg/mL (≈ 14.1 µM). It also gave an MIC [10] of 32 µg/mL (≈ 56.4 µM), an MIC [11] of 8 µg/mL (≈ 14.1 µM) and an MIC [12] of 16 µg/mL (≈ 28.2 µM). The MIC [13] was 32 µg/mL (≈ 56.4 µM), the MIC [14] was 32 µg/mL (≈ 56.4 µM) and the MIC (Serratia marcescens SE3) was over 128 µg/mL. For the same compound, the MIC (Serratia marcescens X99) was 64 µg/mL (≈ 113 µM), the MIC (Shigella sonnei N9) was 16 µg/mL (≈ 28.2 µM) and the MIC [15] was 8 µg/mL (≈ 14.1 µM). For the same compound, the MIC [16] was 8 µg/mL (≈ 14.1 µM), the MIC [17] was 8 µg/mL (≈ 14.1 µM) and the MIC [18] was 16 µg/mL (≈ 28.2 µM). It also gave an MIC [19] of 8 µg/mL (≈ 14.1 µM), an MIC [20] of 4 µg/mL (≈ 7.05 µM) and an MIC [21] of over 128 µg/mL. The MIC [22] was over 128 µg/mL, the MIC [23] was 16 µg/mL (≈ 28.2 µM) and the MIC [24] was 16 µg/mL (≈ 28.2 µM). The ED50 [25] was 4.5 mg/kg, the “Zone of Inhibition (diameter in mm)” value (Escherichia coli X563; 15 mcg/disc, listed as 5) was 12.1 mm and the zone of inhibition at 15 µg/disc (Escherichia coli X563; Escherichia coli, X563, read-out: Zone of Inhibition (diameter in mm), 15 mcg/disc) was 11.3 mm.

Reference: patent EP0048614B1, “1-N-acylated and 1-N-alkylated derivatives of 4-0-substituted -2-deoxystreptamine aminoglycosides” (ELI LILLY AND COMPANY, priority 1980, dated 1982)
